The record followed here is ChEMBL document CHEMBL4819058, “An amide mimic of desTHPdactylolide: Total synthesis and antiproliferative evaluation” (Bioorg Med Chem Lett, 2021).

A value given as a limit tells only on which side of the number the result lay.

Assay [1] concerns PC-3. Nature of the assay: Antiproliferative activity against androgen-insensitive human PC-3 cells assessed as reduction in cell viability incubated for 3 days by WST-1 assay. Format: functional, cell-based. As to conditions: PC-3, 72 h. (In general: Tetrazolium assays rely on reduction of a dye to a coloured formazan, in cell work by metabolically active cells.)
The test system of assay [2] is PC-3. The experiment in a line: Antiproliferative activity against Docetaxel-resistant human PC-3 cells assessed as reduction in cell viability incubated for 3 days by WST-1 assay. The format is functional, cell-based. As to conditions: PC-3, 72 h.
Assay [3] in a line: Resistance index, ratio of IC50 for antiproliferative activity against human PC-3/DTX cells to IC50 for antiproliferative activity against human PC-3 cells. The format is functional.
The subject of assay [4] is DU-145. Nature of the assay: Antiproliferative activity against androgen-insensitive human DU-145 cells assessed as reduction in cell viability incubated for 3 days by WST-1 assay. As to conditions: DU-145, 72 h. Format: functional, cell-based.
Assay [5] relates to DU-145. The experiment in a line: Antiproliferative activity against Docetaxel-resistant human DU-145 cells assessed as reduction in cell viability incubated for 3 days by WST-1 assay. Format: functional, cell-based. As to conditions: DU-145, 72 h.
Assay [6] can be described thus: Resistance index, ratio of IC50 for antiproliferative activity against human DU145/DTX cells to IC50 for antiproliferative activity against human DU145 cells. Format: functional.
In the next assay the test system is LNCaP. The experiment in a line: Antiproliferative activity against androgen-insensitive human LNCaP cells assessed as reduction in cell viability incubated for 3 days by WST-1 assay. Format: functional, cell-based. As to conditions: 72 h.

The IC50 is the concentration that gives 50% inhibition. Take `C/C1=C/C=C/C(=O)N[C@@H](C=O)C/C(C)=C/COCC/C=C/C(=O)C1`: the IC50 came out at 9.76 µM in the assay on PC-3 [1]; 10.2 µM in the assay with PC-3 [2]; 8.48 µM in the assay on DU-145 [4]; 10.2 µM in the assay on DU-145 [5]; 10.9 µM with LNCaP. Moreover, the “Ratio IC50” value in assay [3] was determined as 1.05; in assay [6], 1.2.

Take `C/C1=C/C=C/C(=O)N[C@@H](CO)C/C(C)=C/COCC/C=C/C(=O)C1`: the IC50 with PC-3 [1] was over 12.5 µM; with PC-3 [2], over 12.5 µM; in the assay on DU-145 [4], 11.1 µM; in the assay on DU-145 [5] it was over 12.5 µM; with LNCaP it was over 12.5 µM.

Turning to `COc1ccc(COC[C@H]2C/C(C)=C/COCC/C=C/C(=O)C/C(C)=C\C=C\C(=O)N2)cc1`, the IC50 with PC-3 [1] came to 7.7 µM; in the assay on PC-3 [2], 4.4 µM; in the assay with DU-145 [4] it was 4.87 µM; in the assay on DU-145 [5], 7.36 µM; in the assay with LNCaP, 6.26 µM. Also, the “Ratio IC50” value is recorded as 0.57 in assay [3] and 1.51 in assay [6].

`CC(=O)O[C@@]12CO[C@@H]1C[C@H](O)[C@@]1(C)C(=O)[C@H](O)C3=C(C)[C@@H](OC(=O)[C@H](O)[C@@H](NC(=O)OC(C)(C)C)c4ccccc4)C[C@@](O)([C@@H](OC(=O)c4ccccc4)[C@H]21)C3(C)C` [DOCETAXEL ANHYDROUS]: in the assay with PC-3 [2], the IC50 came out at 2.34 µM.
